In US12275685B2, “Oligo-benzamide analogs and their use in cancer treatment” (Board of Regents, The University of Texas System, priority 2018, dated 2025):
pIC50: −log10 of the molar value.

Columns and labels:
[1] = tested on: MDA-MB-231 TNBC xenografts; experiment: MDA-MB-231 TNBC xenografts; type: in vivo, mice; details: oral 10 mg/kg/day
Protocol: FIGS. 5A-5C show the effect of TK41 on triple negative breast cancer xenograft tumors. MDA-MB-231 (TNBC; n=10) xenografts were established in nude mice and treated with either vehicle (circle markers) or 10 mg/kg/day TK41 (square markers) administered as an oral gavage in Captisol®. Comparison of mice body weights is shown in bar graphs (FIG. 5A). Photographs of individual tumors at necropsy supports the effect of TK41 on TNBC. *p<0.05; **** p<0.001.
FIGS. 35A-P: ERX-41 is potent against TNBC in vivo. (FIG. 35A) Following establishment of subcutaneous MDA-MB-231 xenograft tumors (200 mm^3), 10 mg/kg single dose ERX-41 was administered either by oral or intraperitoneal route. The tumor was harvested 0, 0, 5, 1, 5, 3, 6 and 24 h after drug administration and the drug levels assayed by LC-MS/MS and graphed. (FIGS. 35B-E) Following establishment of MDA-MB-231 xenografts in mammary fat pad in vivo (100 mm^3 size), daily administration of 10 mg/kg ERX-41 or vehicle control (N=8 each group) was initiated. Tumor volumes were measured using digital calipers and graphed (FIG. 35B). Tumor weights (FIG. 35C), body weights (FIG. 35D) and extirpated tumors (FIG. 35E) at end of study are also shown. […] Tumor volumes were measured using digital calipers and graphed (FIG. 35F) along with tumor weights (FIG. 35G) and body weights (FIG. 35H). […]

[2] = tested on: SUM-159 cells with LIPA KO and reconstitution of LIPA; experiment: Dose response in SUM-159 LIPA KO cells reconstituted with LIPA constructs; type: cell-based
Excerpt: FIGS. 39A-N: (FIGS. 39A-E) Predicted binding mode of ERX-41 (colored in green) on the human lysosomal acid lipase (LAL, PDB code: 6V7N, LXXLL (SEQ ID NO: 1) domain colored in orange). (FIG. 39F) PDB structure of LAL protein showing relative positions of the catalytic domain (with H274Y MT) and the LXXLL (SEQ ID NO: 1) domain (L242P MT). (FIG. 39G) Evaluation of the effect of ERX-41 and lalistat (known lipase inhibitor) on lipase activity of parental SUM-159 (WT) and SUM-159 cells with LIPA KO. (FIG. 39H) Evaluation of basal lipase activity in parental SUM-159 (WT), SUM-159 cells with LIPA KO (KO), SUM-159 cells with LIPA KO and with reconstitution of either WT LIPA (KO+WT), H274Y MT-LIPA (KO+H274Y), DLXXLL (SEQ ID NO: 2) MT-LIPA (KO+DLXXLL (SEQ ID NO: 2)) or L242P MT-LIPA (KO+L242P). Protein expression of LAL and control vinculin in these cells are shown below (FIG. 391) Cellular lysates from described SUM-159 cells were incubated with biotinylated ERX-11 or biotinylated ERX-41 and then subject to a streptavidin column. Elutants were then evaluated for LIPA pulldown by western blotting. (FIG. 39J) Dose response curve to increasing concentrations of ERX-41 in described SUM-159 cells. (FIGS. 39K-M) Effect of vehicle or 1 μM ERX-41 on induction of UPR genes at the protein level (FIG. 39K) or RNA level (FIGS. 39L-M). […]

SMILES: CC(C)COc1cc(C(=O)Nc2ccc(C(=O)N[C@H]3CC[C@H](C)CC3)cc2OCC(C)C)ccc1NC(=O)c1ccc([N+](=O)[O-])c(OCCO)c1 [TK41]
- growth of MDA-MB-231 xenografts [1]: significantly decreased the growth
- mouse body weights [1]: no alterations in mouse body weights
- sensitivity after reconstitution of H274Y MT-LIPA ([2]; KO+H274Y): restored sensitivity
- pIC50 ([2]; SUM159, KO+WT (WT-LIPA reconstituted)): 6.60
